According to patent US5137890A, “4-phenyl tetrahydropyrido(4,3-d)pyrimidines” (Ortho Pharmaceutical Corporation, priority 1990, dated 1992):
Where a name gives a salt, the structure may show the parent alone.

Columns and labels:
[1] = tested on: Ethanol-Induced Lesions; test: Cytoprotection: inhibition of ethanol-induced lesions; format: in vivo, male, Charles River rats; conditions: Rattus norvegicus, oral, 1 hour before 50% ethanol
Protocol: Using the procedures of Robert, A. et al., Gastroenterology 77, 433(1979), male, Charles River rats weighing between 140 and 220 g were fasted overnight, but allowed water ad libitum. The rats were, however, deprived of water during the experiment. The rats were weighed and pretreated orally with the example compounds at the doses shown below in Table 1. One hour later, the necrotizing agent, 50% ethanol, was administered orally in a dose volume of 1 ml/animal. After an additional hour, the rats were sacrificed with CO2, the stomachs removed, inflated with distilled water, opened along the greater curvature and laid out on a flat surface. The presence of mucosal bleeding was noted and after wiping off the mucosa, the presence of submucosal bleeding was also noted. The incidence of lesions in the mucosa and the submucosa was statistically analyzed by the method of Chisquares using Yates correction.

[2] = tested on: 80 mg/kg aspirin; test: Cytoprotection vs. 80 mg/kg aspirin (footnotes of Table 1); format: in vivo

Structure (SMILES)	inhibition in vivo at 10 mg/kg [1] [%]	ED50 [1] [mg/kg]	other results
CC(=O)N1CCc2nc(C)nc(-c3ccc(Cl)cc3)c2C1 [Example 1, 6-Acetyl-4-(4-chlorophenyl)-2-methyl-5,6,7,8-tetrahydropyrido[4,3-d]pyrimidine]	20		
CC(=O)N1CCc2nc(C)nc(-c3ccc(F)cc3)c2C1 [Example 2, 6-Acetyl-4-(4-fluorophenyl)-2-methyl-5,6,-7,8-tetrahydropyrido[4,3-d]pyrimidine Monohydrochloride Monohydrate]	100		8/10 vs. 80 mg/kg aspirin ([2]; at 20 mg/kg vs. 80 mg/kg aspirin): 8/10
CCN1CCc2nc(Nc3ccc(C(F)(F)F)cc3)nc(-c3ccc(Cl)cc3)c2C1 [Example 5, 4-(4-chlorophenyl)-6-ethyl-2-(4-trifluromethylphenylamino)-5,6,7,8-tetrahydropyrido[4,3-d]pyrimidine dihydrochloride monohydrate]	20		
CCNc1nc2c(c(-c3ccc(F)cc3)n1)CN(C(C)=O)CC2 [Example 7, 6-Acetyl-4-(4-fluorophenyl)-2-ethylamino-5,6,7,8-tetrahydropyrido[4,3-d]pyrimidine]		5	
C=CCN1CCc2nc(NCC)nc(-c3ccc(Cl)cc3)c2C1 [Example 9, 6-Allyl-4-(4-chlorophenyl)-2-ethylamino-5,6,7,8-tetrahydropyrido[4,3-d]pyrimidine]	80		
CCNc1nc2c(c(-c3ccc(Cl)cc3)n1)CN(Cc1ccccc1)CC2 [Example 10, 6-Benzyl-4-(4-chlorophenyl)-2-ethylamino-5,6,7,8-tetrahydropyrido[4,3-d]pyrimidine]	20		
CCNc1nc2c(c(-c3ccc(Cl)cc3)n1)CN(CC)CC2 [Example 11, 4-(4-Chlorophenyl)-6-ethyl-2-ethylamino-5,6,7,8-tetrahydropyrido[4,3-d]pyrimidine]		9.5	
CCNc1nc2c(c(-c3ccc(F)cc3)n1)CNCC2.Cl [Example 12, 2-Ethylamino-4-(4-fluorophenyl)5,6,7,8-tetrahydropyrido[4,3-d]pyrimidine Monohydrochloride]		4.7	8/10 vs. 80 mg/kg aspirin ([2]; at 10 mg/kg vs. 80 mg/kg aspirin): 8/10
CC(=O)N1CCc2nc(N)nc(-c3ccc(Cl)cc3)c2C1 [Example 13, 6-Acetyl-2-amino-4-(4-chlorophenyl)-5,6,7,8-tetrahydropyrido[4,3-d]pyrimidine]		~3	
CC(=O)N1CCc2nc(N)nc(-c3ccc(F)cc3)c2C1 [Example 14, 6-Acetyl-2-amino-4-(4-fluorophenyl)-5,6,7,8-tetrahydropyrido[4,3-d]pyrimidine Monohydrate]	80		
Nc1nc2c(c(-c3ccc(Cl)cc3)n1)CNCC2 [Example 15, 2-Amino-4-(4-chlorophenyl)-5,6,7,8-tetrahydropyrido[4,3-d]pyrimidine Dihydrochloride]	40		
Nc1nc2c(c(-c3ccc(F)cc3)n1)CNCC2 [Example 16, 2-amino-4-(4-fluorophenyl)-5,6,7,8-tetrahydropyrido[4,3-d]pyrimidine dihydrochloride hemihydrate]	80		
CCN1CCc2nc(N)nc(-c3ccc(Cl)cc3)c2C1.Cl.Cl [Example 17, 2-Amino-4-(4-chlorophenyl)-6-ethyl-5,6,7,8-tetrahydropyrido[4,3-d]pyrimidine Dihydrochloride]		3.2	ED50 [2]: 14.5 mg/kg
CCN1CCc2nc(N)nc(-c3ccc(F)cc3)c2C1 [Example 18, 2-Amino-4-(4-fluorophenyl)-6-ethyl-5,6,7,8-tetrahydropyrido[4,3-d]pyrimidine]		3.7	8/10 v. 80 mg/kg aspirin ([2]; at 40 mg/kg v. 80 mg/kg aspirin): 8/10
CCCN1CCc2nc(N)nc(-c3ccc(Cl)cc3)c2C1 [Example 19, 2-Amino-4-(4-chlorophenyl)-6-propyl-5,6,7,8-tetrahydropyrido[4,3-d]-pyrimidine Dihydrochloride 1/4 Hydrate]		2.7	
C=CCN1CCc2nc(N)nc(-c3ccc(Cl)cc3)c2C1.Cl.Cl [Example 20, 6-Allyl-2-amino-4-(4-chlorophenyl)-5,6,7,8-tetrahydropyrido[4,3-d]pyrimidine Dihydrochloride]		7.9	
C=CCN1CCc2nc(N)nc(-c3ccc(F)cc3)c2C1.Cl.Cl [Example 21, 6-Allyl-2-amino-4-(4-fluorophenyl)-5,6,7,8-tetrahydropyrido[4,3-d]pyrimidine Dihydrochloride]		5	
CN1CCc2nc(N)nc(-c3ccc(Cl)cc3)c2C1 [Example 22, 2-Amino-4-(4-chlorophenyl)-6-methyl-5,6,7,8-tetrahydropyrido[4,3-d]pyrimidine 1/4 Hydrate]	100		
CC(=O)N1CCc2nc(N)nc(-c3ccccc3)c2C1.O [Example 23, 6-Acetyl-2-amino-4-phenyl-5,6,7,8-tetrahydropyrido[4,3-d]pyrimidine Monohydrate]		2.3	ED50 [2]: 9.5 mg/kg
CC(=O)N1CCc2nc(C)nc(-c3ccc(C)cc3)c2C1 [Example 24, 6-Acetyl-2-methyl-4-(4-methylphenyl)-5,6,7,8-tetrahydropyrido[4,3-d]pyrimidine Monohydrate]	40		
CCCN(CCC)c1nc2c(c(-c3ccc(C)cc3)n1)CN(C(C)=O)CC2 [Example 25, 6-Acetyl-5,6,7,8-tetrahydro-4-(4-methylphenyl) -2-dipropylaminopyrido[4,3-d]-pyrimidine Monohydrate]	40		
CCN(CC)CCN1CCc2nc(N)nc(-c3ccc(F)cc3)c2C1 [Example 26, 2-Amino-6-(2-diethylaminoethyl)-4-(4-fluorophenyl)-5,6,7,8-tetrahydropyrido[4,3-d]pyrimidine Trihydrochloride]	80		
CN(C)CCCN1CCc2nc(N)nc(-c3ccc(F)cc3)c2C1 [Example 27, Trihydrochloride]		~7	
